Assay results as given in PMC9105976, “A Novel β-Hairpin Peptide Z-d14CFR Enhances Multidrug-Resistant Bacterial Clearance in a Murine Model of Mastitis” (International Journal of Molecular Sciences, 2022).
Positions of bridges follow the written chain, without caps; N, C: chain ends. Residues, ends and D or L forms follow the SMILES beside them.

Key:
[1] = tested on: MRSA ATCC33591; assay: MIC/MBC, microdilution broth method; assay type: cell-based, S. aureus; conditions: MRSA ATCC33591; kills 99.9% bacteria; NA = no activity at 1 mg/mL
Procedure: (§1) The MIC of peptides against bacteria was carried out by the microdilution broth method. The bacterial culture (OD 600 = 0.6) was diluted in 10 mM PBS to 1 × 10^6 CFU/mL. The bacterial suspension (100 μL) was added to 96-well plates, and the same volume of peptides, ampicillin or gentamicin (concentrations ranging from 0.001 to 2 mg/mL) were then added to the same 96-well plates, respectively.

[2] = tested on: E. coli CAU201919; assay: Murine model of mastitis induced by MDR E. coli; assay type: in vivo, mice; conditions: Z-d14CFR 25 μg or gentamicin 10 μg via milk duct at 3 h and 15 h, 27 h post-infection
Text: In this study, the therapeutic effects of Z-d14CFR on MDR bacterial infection in vivo was verified by a murine mastitis model. E. coli CAU201919 was used to establish the mastitis model because it is highly pathogenic compared with other bacteria and is resistant to various antibiotics, such as ampicillin, amoxicillin and cefazolin. In brief, 45 Crl:CD1 female mice at 17–18 days of gestation were purchased from Beijing Vital River Laboratory Animal Technology Co., Ltd. (Beijing, China) and kept in the Laboratory Animal Center of China Agricultural University (Beijing, China). At 72 h post-partum, the mice were randomly divided into 5 groups (n = 9 per group) and the offspring were removed 3 h before of administration. The mice were anesthetized by Zoletil 50 (55 mg/kg body weight, WK001, Virbac, France) and held under the stereoscope in a supine position. Mice in the saline group and Z-d14CFR group were intraductal inoculated with 50 μL normal saline or 50 μL Z-d14CFR (25 μg each teat) alone to the milk duct. Mice in other groups were inoculated with 25 μL (1 × 10^5 CFU) E. coli CAU201919 suspension to the milk duct, and after 3 h of E. coli challenged, mice were treated with 25 μL saline, Z-d14CFR (25 μg) or gentamicin (10 μg), respectively, via milk duct injection. Then the mice were given the same treatment after 15 h of E. coli challenged. After 27 h of E. coli challenged, all mice were euthanized. The mammary gland tissues were collected to carry out bacterial count, histopathological examination and inflammatory factors examination.

[3] = tested on: E. coli ATCC25922; assay: Cytoplasmic membrane integrity, SYTO 9/PI flow cytometry; assay type: cell-based; conditions: 2 MIC, 3 h, flow cytometry, 10,000 cells, PBS 0%
Procedure: (§2) E. coli ATCC25922 and S. aureus ATCC29213 (OD600 = 0.6) were washed and diluted into 1 × 10^8 CFU/mL in sterile saline. The cells were treated with Z-d14CFR in the final concentration of 2 MIC for 3 h. Following that, the same volume of a mixture contains SYTO 9 dye and PI (Thermo Fisher, Waltham, MA, USA) (v/v, 1:1) was added to bacteria and incubated at 37 °C in the dark for 15 min. The bacteria were washed with saline to remove the unbound dye and then observed with a Nikon A1 confocal laser scanning microscope.
(§3) In order to further determine the percentage of PI-positive cells, the data of 10,000 cells were collected and analyzed by BD LSRFortessa flow cytometer.

[4] = tested on: S. aureus ATCC29213; assay: as above; assay type: cell-based; conditions: 2 MIC, 3 h, flow cytometry, 10,000 cells, PBS 0.4%
Procedure: as §2, §3

[5] = tested on: E. coli ATCC25922 and S. aureus ATCC29213; assay: Cytoplasmic membrane depolarization, DiSC3(5); assay type: cell-based; conditions: 2 MIC to 1/4 MIC; fluorescence 622/670 nm, 30 min
Procedure: The ability of Z-d14CFR to disrupt inner cytoplasmic membrane potential of E. coli ATCC25922 and S. aureus ATCC29213 was monitored using 3,3-dipropylthiadicarbocyanine iodide DiSC3(5) (Macklin, D864435, Shanghai, China) as previous mentioned. The bacteria were washed and resuspended with 5 mM HEPES, pH 7.4, containing 5 mM glucose and 100 mM KCl buffer into 1 × 10^6 CFU/mL. DiSC3(5) was subsequently added and incubated at 37 °C in the dark for 15 min until the fluorescence had stabilized. Z-d14CFR in a final concentration of 2 MIC, 1 MIC, 1/2 MIC and 1/4 MIC was added to the mixture. The fluorescence intensity was continuously monitored for 30 min by an excitation wavelength of 622 nm and an emission wavelength of 670 nm.

[6] = tested on: mammalian cells (MAC-T, Hela, Vero); assay: Cytotoxicity, CCK8; assay type: cell-based; conditions: at 1 mg/mL, 24 h in DMEM with 1% FBS, CCK8, OD 450 nm, three independent experiments
Procedure: The cytotoxicity of peptides to mammalian cells was carried out according to CCK8 instructions (Beyotime, Shanghai, China). 1 × 10^4 Hela, Vero and MAC-T cells were, respectively, added in 96-well plates and cultured at 37 °C with 5% CO2 for 24 h. Then, the cells were washed thrice with 10 mM PBS to remove medium and then incubated with 100 μL peptide in DMEM with 1 % (v/v) FBS (finally concentration ranging from 1 mg/mL to 0.001 mg/mL). After incubating at 37 °C with 5% CO2 for 24 h, 10 μL CCK8 was added to the cells and then continued to be incubated at 37 °C for 4 h. CCK8 interacted with PBS without cells as the blank control. The absorbance of the mixture was measured at 450 nm and cell viability was calculated as follows: Cell viability (%) = (OD 450 peptide − OD 450 Blank)/(OD 450 PBS − OD 450 Blank) × 100%.

[7] = tested on: E. coli ATCC25922; assay: Time-killing assay; assay type: cell-based; conditions: 2 MIC, CFU counts at 0-24 h
Procedure: (§4) E. coli ATCC25922 and S. aureus ATCC29213 in the mid-logarithmic phase were diluted into 1 × 10^6 CFU/mL with 10 mM PBS, and incubated with 10 μL Z-d14CFR in a final concentration of 2 MIC. At 0, 4, 8, 12, 16, 20, and 24 h, the mixture was serial diluted and spread onto LB agar plates. After 16 h of cultivation, the CFU number of bacteria was counted to evaluate the ability of peptide to kill bacteria. The bacteria treated with 10 mM PBS as a negative control, and meanwhile incubated with 2 MIC gentamicin or polymyxin B as a positive control.

[8] = tested on: S. aureus ATCC29213; assay: Time-killing assay; assay type: cell-based; conditions: 2 MIC, CFU counts at 0-24 h
Procedure: as §4

[9] = tested on: Streptococcus suis CVCC3307; assay: MIC/MBC, microdilution broth method; assay type: cell-based; conditions: Streptococcus suis CVCC3307; kills 99.9% bacteria; NA = no activity at 1 mg/mL
Procedure: as §1

[10] = tested on: Proteus vulgaris CVCC1971; assay: MIC/MBC, microdilution broth method; assay type: cell-based; conditions: Proteus vulgaris CVCC1971; kills 99.9% bacteria; NA = no activity at 1 mg/mL
Procedure: as §1

[11] = tested on: E. coli ATCC25922; assay: Extracellular β-galactosidase assay; assay type: cell-based; conditions: 2 MIC, 4 h at 37 °C, ONPG, OD 420 nm, compared with PBS, p < 0.001
Procedure: (§5) E. coli ATCC25922 and S. aureus ATCC29213 were washed and resuspended with 10 mM PBS into OD 600 = 0.5. […] Then, 190 μL of the supernatants was incubated with 10 μL 2-nitrophenyl-β-d-galactopyranoside, ONPG (Macklin, N814742, Shanghai, China) at a final concentration of 3 mM at 37 °C for 30 min. The absorbance at 420 nm was measured to assess the level of β-galactosidase outside the cells. The bacteria treated with 10 mM PBS in absence of peptide as the negative control and treated with ultrasonication as the positive control.

[12] = tested on: S. aureus ATCC29213; assay: Extracellular β-galactosidase assay; assay type: cell-based; conditions: 2 MIC, 4 h at 37 °C, ONPG, OD 420 nm, compared with PBS, p < 0.001
Procedure: as §5

[13] = Retention time of peptide in HPLC (hydrophobicity); assay type: physicochemical; conditions: used as measure of hydrophobicity (order Z-d14CR > Z-d14CF > Z-d13 > Z-d14CFR > Z-d14C); column and gradient not given

## CC(C)[C@@H]1NC(=O)[C@@H]2CSSC[C@H](NC(=O)[C@H](CCCNC(=N)N)NC(=O)[C@@H](NC(=O)CNC(=O)[C@@H](N)CCCNC(=N)N)CSSC[C@@H](C(=O)N[C@@H](CCCNC(=N)N)C(N)=O)NC1=O)C(=O)N[C@@H](CC(N)=O)C(=O)N[C@@H](CO)C(=O)N[C@@H](CCCCN)C(=O)N[C@@H](CO)C(=O)N[C@@H](Cc1ccccc1)C(=O)N2 [Z-d14CFR] (H-RGCRCNSKSFCVCR-NH2; disulfide 3-13, 5-11; N-terminus assumed)
[1]
  MBC: NA (NA) (No antimicrobial activity at 1 mg/mL)
[2]; Crl:CD1 mice, 1 × 10^5 CFU E. coli CAU201919 intraductal, infected only about 3.71 × 10^9, p < 0.001
  bacterial burden in the mammary gland: 3.57 × 10^8 CFU/g tissue
[2]
  histopathologic damage of the mammary gland (acinar wall thickening, neutrophils infiltration): obviously ameliorated
[2]; p < 0.001
  increase in IL-1β mRNA expression in the mammary gland: attenuated
  increase in TNF-α mRNA expression in the mammary gland: attenuated
[3]
  PI-positive bacteria: 12.5%
[4]
  PI-positive bacteria: 3.4%
[5]
  DiSC3(5) release (cytoplasmic membrane depolarization): remarkable releasing of DiSC3(5)
[6]
  cytotoxicity: < 10%
[7]; 1 × 10^6 CFU/mL
  time to kill bacteria in the logarithmic phase: ≤ 4 h
[7]
  time to kill bacteria in the plateau: ≤ 16 h
[8]; 1 × 10^6 CFU/mL
  time to kill bacteria in the logarithmic phase: ≤ 4 h
[8]
  time to kill bacteria in the plateau: ≤ 16 h
[9]
  MBC: NA (NA) (No antimicrobial activity at 1 mg/mL)
[10]
  MBC: NA (NA) (No antimicrobial activity at 1 mg/mL)
[11]
  extracellular release of β-galactosidase: significantly induced the release of β-galactosidase
[12]
  extracellular release of β-galactosidase: significantly induced the release of β-galactosidase
[13]
  RT, retention time of peptide in HPLC: 7.820 min
